From patent publication US20260355357A1, “DIAGNOSTIC AGENTS AND USES THEREOF” (HADASIT MEDICAL RESEARCH SERVICES AND DEVELOPMENT LTD., priority 2023, published 2026)
Values joined by “and” are separate entries in the source; they are usually repeats but may differ in a detail not shown here. Identical values can stand only once. Like-named read-outs stand apart in the source and are kept apart here. Marks after values point to notes of the source that are not given here.

Assays:
[1] = Deuteron T1 determined by Inversion Recovery technique (5.8T, saline); assay type: physicochemical; settings: for T1 relaxation time of deuterons at D site / HDO T1: 5.8T, saline
Procedure: Example 1: Determinations of Deuterons T1 in Sugar Molecules
Table 1 describes the difference in T1 of deuterons in water (HDO, natural abundance) and in sites labelled with deuterons in various molecules that were determined using an Inversion Recovery technique. […] PGP-47 TI

[2] = Adverse effects after bolus intravenous injection of DDG, mice; assay type: in vivo, mouse; settings: bolus i.v., 37 mg/kg to 248 mg/kg (mice and rats), awake up to 78 min
Procedure: (§1) Mice and rats, males and females at equal numbers, were intravenously injected with a bolus of varying doses of deuterated 2-deoxy-D-glucose (2-DG, DDG, with varying numbers and positions of deuteration). DDGs were provided by CortecNet, France. The injection was performed under sedation in all rats (18) and in 12 of 18 mice, after which the animals woke up within 1 minute. […] Further to euthanasia, the brain, liver, kidneys, heart, and muscle were excised and immediately placed in liquid nitrogen. The frozen tissue samples were kept at −80 °C until further processing.
(§2) The animals were observed awake for up to 78 min after the injection. The injection bolus was administered in less than 1 s and ranged from 0.1 mL for mice (ca. 25-40 g) to 0.6 mL for rats (ca. 120-160 g).

[3] = Adverse effects after bolus intravenous injection of DDG, rats; assay type: in vivo, rat; settings: bolus i.v., 37 mg/kg to 248 mg/kg (mice and rats), awake up to 78 min
Procedure: as §1, §2

brain slices = assay: [6,6-D2]D-glucose uptake and metabolism in perfused brain slices, deuterium NMR; assay type: in vitro ADME, rat (male Sprague-Dawley); settings: for D-Glc before 1st ischemia: group A; for Minimum D-Glc during 1st ischemia: group B, 10 min perfusion arrest; for Maximal difference of D-Glc before and during 1st ischemia: group B′; for D-Glc in between ischemic conditions: group C; for Minimum D-Glc during 2nd ischemia: group D; for Maximal difference of D-Glc before and during 2nd ischemia: group D′; for D-Glc after 2nd ischemic condition: group E; for D-Lac before 1st ischemia: group F; for Maximal D-Lac during 1st ischemia: group G; for D-Lac in between ischemic conditions: group H; for Maximal D-Lac during 2nd ischemia: group I; for D-Lac after 2nd ischemic condition: group J
Source text: Male Sprague-Dawley rats (n=4, 70-100 g) were obtained from the Hebrew University Authority of Biological and Biomedical Models. The joint ethics committee (IACUC) of the Hebrew University and Hadassah Medical Center approved the study protocol for animal welfare. The Hebrew University is an AAALAC International accredited institute. Care was taken to minimize the animals' pain and discomfort. Animals were housed in the animal facilities 3-5 days after delivery for acclimatization and fed ad libitum. On the experimental day, animals were transferred to the laboratory and anesthetized within one hour of arrival.
To improve the health of acute brain slices obtained from mature adult rats, we modified a slice preparation technique optimized for in vitro electrophysiology in mature adult rat brain slices. In brief, slice health is improved by a so-called “protective recovery” method. NMDG is an extracellular replacer of sodium ions that prevents sodium ions and water influx into cells, the primary insult causing cell death following brain slicing. […] Furthermore, incubation in HEPES-buffered artificial cerebrospinal fluid (aCSF) improved slice health. The following solutions were prepared in the current study, and their use is described in the sections below.
NMDG-aCSF was used for transcardial perfusion, tissue slicing, and slice recovery. This medium contained 93 mM NMDG, 2.5 mM KCl, 1.2 mM NaH2PO4, 26 mM NaHCO3, 20 mM HEPES, 25 mM D-glucose, 10 mM MgSO4, 0.5 mM CaCl2, 5 mM ascorbic acid, 2 mM thiourea, and 3 mM pyruvic acid in double distilled water.
HEPES-holding aCSF was used to incubate slices following the surgical procedure. This medium contained 84 mM NaCl, 2.5 mM KCl, 1.2 mM NaH2PO4, 30 mM NaHCO3, 20 mM HEPES, 25 mM Glc (D-glucose, non-labeled), 2 mM MgSO4, 2 mM CaCl2, 5 mM ascorbic acid, 2 mM thiourea, and 3 mM pyruvic acid in double distilled water.
Perfusion aCSF was used for perfusion in the NMR spectrometer. This medium contained 115 mM NaCl, 2.5 mM KCl, 1.2 mM NaH2PO4, 24 mM NaHCO3, 5 mM HEPES, 10 mM Glc (to be replaced with 10 mM D-Glc), 2 mM MgSO4, and 2 mM CaCl2 in double distilled water.
All three solutions (1-3) were bubbled with 95%/5% O2/CO2 for at least one hour before use and titrated to a pH of 7.35-7.45 using HCl or NaOH. All concentrations were optimized for a calculated osmolarity of 310±15 mOsm.
Brain slices were extracted and maintained using the above solutions as previously described. Briefly, the rats were anesthetized using a gas anesthesia system (Somnosuite, Kent Scientific, Torrington, CT, USA). Induction was performed in a chamber with 3.5% isoflurane in room air with a flow rate of 440 mL/min. Following 4-7 min of induction, anesthesia was maintained with 3.1-3.2% isoflurane at the same flow rate. Upon obtaining a negative pedal pain reflex, surgery was initiated. First, the diaphragm was exposed and cut, and the rat was transcardially perfused with 30 mL of ice-cold NMDG-aCSF (Solution 1). The animals were then sacrificed by decapitation, and the brain was rapidly removed and placed in ice-cold NMDG-aCSF (Solution 1). The cerebrum was then cut into four parts (first, a sagittal cut along the hemispheric cleft and then a sagittal cut in the middle of each hemisphere). From each part, 350 μm slices were prepared using a McIlwain tissue chopper (The Mickle Laboratory Engineering Company Ltd., Surrey, UK). The process of brain extraction, from decapitation till the brain was in ice-cold NMDG-aCSF, took under 2 min, and the slicing procedure was done in less than 10 min. After cutting, the slices were transferred to warm, 32-34 °C, NMDG-aCSF (Solution 1) for 12 min for protective recovery. Then, the slices were transferred to HEPES-holding aCSF (Solution 2) at ~32 °C for 15-40 min incubation before transfer to the NMR spectrometer, where the slices were perfused with the aCSF of Solution 3. […]

[4] = Biodistribution of deuterated 2-deoxy-D-glucose, 2H-NMR of tissue extracts, mice; assay type: in vivo, mouse; settings: [D2]DDG bolus i.v., 169-182 mg/kg (non-labeled 2DG equivalent)
Procedure: as §1
Extraction of the water-soluble metabolites and the lipids was carried out using the dual-phase extraction procedure as described previously [Katz-Brull R, et al. Differential routing of choline in implanted breast cancer and normal organs. Article. Magnetic Resonance in Medicine. July 2001; 46(1):31-38. doi:10.1002/mrm.1157]. Briefly, a frozen sample is placed in 10 mL of ice-cold methanol containing 0.4 mM phenyl phosphonic acid for at least 1 hour. The tissue is then homogenized in ice-cold methanol using a tissue homogenizer. Equal volumes of chloroform and water are then added to the sample tube, and the mixture is vortexed and vigorously shaken. The samples are allowed to stand at 4 °C for at least 24 hours for phase separation. The methanol-water phase is aspirated, treated with Chelex to remove divalent ions, and then lyophilized for at least 24 hours. When the samples are dry (as powder), they are redissolved in 0.5 mL of double-distilled water and transferred to 5-mm NMR tubes for scanning. The samples are scanned in a 9.4 T NMR spectrometer.

[5] = position 1 (aliphatic), 16-17 °C
[6] = position 2 (aliphatic), 16-17 °C

OC[C@H]1OC(O)[C@H](O)[C@@H](O)[C@@H]1O (some centres unmarked) [[^13C6, D7]glucose]
T1 relaxation time of deuterons at D site ([1]; aliphatic + ring, 20 °C): 56 ms

[2H]C1(O)O[C@]([2H])(C([2H])([2H])O)[C@@]([2H])(O)[C@]([2H])(O)C1([2H])[2H] (stereo partly drawn) [[D8]DDG, [1,2,2,3,4,5,6,6-D8]2-deoxy-D-glucose]
adverse effects [2]: no adverse effects
adverse effects [3]: no adverse effects

C[N+](C)(C)CCO [[D13]choline bromide]
T1 relaxation time of deuterons at D site [1, 5]: 389 ms
T1 relaxation time of deuterons at D site [1, 6]: 396 ms
T1 relaxation time of deuterons at D site ([1]; position 3 (aliphatic), 16-17 °C): 382 ms

N[C@@H](Cc1ccc(O)cc1)C(=O)O [[^13C9, D7, ^15N]tyrosine]
T1 relaxation time of deuterons at D site ([1]; aliphatic, 16-17 °C): 45 ms
T1 relaxation time of deuterons at D site ([1]; aromatic, 16-17 °C): 45 ms

OC[C@H]1OC(O)[C@H](O)[C@@H](O)[C@@H]1O (stereo partly drawn) [D-Glc, [6,6-D2]D-glucose]
time for return to baseline level upon reperfusion (brain slices; after 1st ischemic condition): ≤ 8 min
time for return to baseline level upon reperfusion (brain slices; after 2nd ischemic condition): ≤ 8 min
time for D-Glc signal to reach plateau (brain slices; after administration of D-Glc to perfusion medium): ≤ 6 min
maximal decrease in the D-Glc concentration (brain slices; both ischemic conditions, n=6): 4.3 ± 0.9 mM
conversion of available D-Glc (brain slices; during the ischemic conditions): fully converted to D-Lac
D-Glc before 1st ischemia (brain slices; average ± SD, n=3): 8.6 ± 0.7 mM
D-Glc before 1st ischemia (brain slices; individual animals): 9.3 mM and 8.8 mM and 7.6 mM
Minimum D-Glc during 1st ischemia (brain slices; average ± SD, n=3): 4.6 ± 1.5 mM
Minimum D-Glc during 1st ischemia (brain slices; individual animals): 4.7 mM and 6.4 mM and 2.8 mM
Maximal difference of D-Glc before and during 1st ischemia (brain slices; average ± SD, n=3): 3.9 ± 1.3 mM
Maximal difference of D-Glc before and during 1st ischemia (brain slices; individual animals): 4.6 mM and 2.4 mM and 4.8 mM
D-Glc in between ischemic conditions (brain slices; average ± SD, n=3): 8.7 ± 0.7 mM
D-Glc in between ischemic conditions (brain slices; individual animals): 9.5 mM and 8.6 mM and 7.9 mM
Minimum D-Glc during 2nd ischemia (brain slices; average ± SD, n=3): 4.1 ± 0.5 mM
Minimum D-Glc during 2nd ischemia (brain slices; individual animals): 4.6 mM and 4.2 mM and 3.4 mM
Maximal difference of D-Glc before and during 2nd ischemia (brain slices; average ± SD, n=3): 4.6 ± 0.3 mM
Maximal difference of D-Glc before and during 2nd ischemia (brain slices; individual animals): 4.9 mM and 4.4 mM and 4.5 mM
D-Glc after 2nd ischemic condition (brain slices; average ± SD, n=3): 9.3 ± 1.1 mM
D-Glc after 2nd ischemic condition (brain slices; individual animals): 10.8 mM and 8.8 mM and 8.2 mM
D-Glc in between 2nd and 3rd ischemic conditions (brain slices; group K, animal 3): 8.3 mM
Minimum D-Glc during 3rd ischemia (brain slices; group L, animal 3, 64 min ischemia): 1.2 mM
Maximal difference of D-Glc before and during 3rd ischemia (brain slices; group L′, animal 3): 7.1 mM
D-Glc after 3rd ischemic condition (brain slices; group M, animal 3): 9.1 mM
T1 relaxation time of deuterons at D site ([1]; aliphatic, 16-17 °C): 53 ^c ms

[2H]O [HDO]
HDO T1 ([1]; HDO in the solution of [13C6, D7]glucose, 20 °C): 279 ms
HDO T1 ([1]; HDO in the solution of the compound on that line, 16-17 °C): 420 ms and 437 ms and 422 ms and 410 ms
HDO's T1 ([1]; summary of Table 1): ca. 400 ms

[2H]C([2H])(O)[C@H]1OC(O)C[C@@H](O)[C@@H]1O (stereo partly drawn) [[D2]DDG, [6,6-D2]2-deoxy-D-glucose]
concentration ([4]; n=1, read-out: concentration in the liver): 400 µM
concentration ([4]; n=2, read-out: concentration in the brain): 1190 µM
adverse effects [2]: no adverse effects
adverse effects [3]: no adverse effects

C[N+](C)(C)CCO [[2-^13C,1,1,2,2-D4]choline chloride]
T1 relaxation time of deuterons at D site [1, 5]: 422 ms
T1 relaxation time of deuterons at D site [1, 6]: 404 ms

N[C@@H](Cc1ccc(O)cc1)C(=O)O [[D7]tyrosine]
T1 relaxation time of deuterons at D site ([1]; aliphatic, 16-17 °C): 48 ms
T1 relaxation time of deuterons at D site ([1]; aromatic, 16-17 °C): 43 ms

[2H]C([2H])C(O)C(=O)O [D-Lac, [3,3-D2]lactate]
time for return to baseline level upon reperfusion (brain slices; after 1st ischemic condition): ≤ 8 min
D-Lac accumulation within the cells due to ischemic conditions (brain slices; after 2nd reperfusion vs before and between ischemic conditions): did not accumulate within the cells due to the ischemic conditions
time of first observation of D-Lac signal (brain slices; after D-Glc administration): ≤ 8 min
time for D-Lac to reach plateau (brain slices; after D-Glc administration, n=3): 12 to 14 min
increase in D-Lac concentration (brain slices; both ischemic conditions, n=6): 5.5 ± 1.1 mM
D-Lac level without perfusion arrest (brain slices; control experiment, no ischemic conditions): constant throughout
D-Lac before 1st ischemia (brain slices; average ± SD, n=3): 0.9 ± 0.4 mM
D-Lac before 1st ischemia (brain slices; individual animals): 0.4 mM and 1.02 mM and 1.4 mM
Maximal D-Lac during 1st ischemia (brain slices; average ± SD, n=3): 5.1 ± 1.3 mM
Maximal D-Lac during 1st ischemia (brain slices; individual animals): 4.8 mM and 3.7 mM and 6.8 mM
D-Lac in between ischemic conditions (brain slices; average ± SD, n=3): 1.1 ± 0.3 mM
D-Lac in between ischemic conditions (brain slices; individual animals): 0.67 mM and 1.29 mM and 1.41 mM
Maximal D-Lac during 2nd ischemia (brain slices; average ± SD, n=3): 5.91 ± 0.12 mM
Maximal D-Lac during 2nd ischemia (brain slices; individual animals): 5.85 mM and 6.07 mM and 5.80 mM
D-Lac after 2nd ischemic condition (brain slices; average ± SD, n=3): 1.6 ± 0.4 mM
D-Lac after 2nd ischemic condition (brain slices; individual animals): 1.08 mM and 1.50 mM and 2.16 mM
Maximal D-Lac during 3rd ischemia (brain slices; group N, animal 3, 64 min ischemia): 10.2 mM
D-Lac after 3rd ischemia (brain slices; group O, animal 3): 2.7 mM
D-Lac signal in medium without brain slices relative to D-Lac in NMR tube with slices (brain slices; perfusion medium, five h, no perfusion arrest): 2.2%
